Source: PMC2974002 (Journal of medicinal chemistry, 2010)
Where two headings read alike, the source gives them in different places.

Tests used:
L1210 cells = test: Cell growth inhibition in a cytotoxic assay with L1210 cells; type: cell-based, murine; conditions: for decrease in cytotoxic potency relative to 5: ratio to 5
[1] = Stability to BnSH without soluble base; type: physicochemical; conditions: for stability to treatment with BnSH: BnSH in THF (72 h, 23 °C) or MeOH (72 h, 23 °C)
[2] = Thiol cleavage of prodrugs with BnSH; type: physicochemical
[3] = Stability in pH 7.0 phosphate buffer; type: physicochemical; conditions: 72 h
[4] = system: L1210 murine leukemia cells; type: in vivo, DBA/2J mice; conditions: i.p. on days 1, 5 and 9; for antitumor activity (in words): compared with free drug 11
[5] = clean release of 11; cited from earlier work
DNA = conditions: cell free systems; cited from earlier work

Molecule | decrease in cytotoxic potency relative to 5 (L1210 cells) | stability to treatment with BnSH [1] | half-life [2] [h] | cleavage in pH 7.0 phosphate buffer [3] | antitumor activity (in words) [4] | half-life in human plasma (t1/2) [5] [h] | half-life ([2]; BnSH (100 equiv) and NaHCO3 (100 equiv) in MeOH) [h] | DNA alkylation (DNA) | cleavage by BnSH ([1]; under all conditions examined) | IC50 (L1210 cells) [nM] | potency of natural (1S)-enantiomer relative to unnatural (1R)-enantiomer (L1210 cells) | dose of maximal effect ([4]; dose range 10–100 μg/kg) [mg/kg]
NC(=O)NOc1cc2c(c3ccccc13)C(CCl)CN2C(=O)c1cc2cc(NC(=O)c3cc4ccccc4[nH]3)ccc2[nH]1 (centres unmarked) [compound 3, N-(2-(1-(Chloromethyl)-5-(ureidooxy)-2,3-dihydro-1H-benzo[e]indole-3-carbonyl)-1H-indol-5-yl)-1H-indole-2-carboxamide] | ten times | stable | 35 | no significant cleavage | active, albeit only at higher doses |  |  |  |  |  |  | 
COC(=O)NOc1cc2c(c3ccccc13)C(CCl)CN2C(=O)c1cc2cc(NC(=O)c3cc4ccccc4[nH]3)ccc2[nH]1 (centres unmarked) [compound 4, Methyl(3-(5-(1H-indole-2-carboxamido)-1H-indole-2-carbonyl)-1-(chloromethyl)-2,3-dihydro-1H-benzo[e]indol-5-yl)oxycarbamate] | five times | stable | 10 | no significant cleavage | active, albeit only at higher doses |  |  |  |  |  |  | 
CC(C)(C)OC(=O)NOc1cc2c(c3ccccc13)C(CCl)CN2C(=O)c1cc2cc(NC(=O)c3cc4ccccc4[nH]3)ccc2[nH]1 (centres unmarked) [compound 5, tert-Butyl(3-(5-(1H-indole-2-carboxamido)-1H-indole-2-carbonyl)-1-(chloromethyl)-2,3-dihydro-1H-benzo[e]indol-5-yl)oxycarbamate] |  | stable |  | no significant cleavage | matched or exceeded the efficacy of the free drug 11 at each dose | 3 to 6 | 6 | incapable of alkylating DNA |  |  |  | 
CC(C)(C)C(=O)NOc1cc2c(c3ccccc13)C(CCl)CN2C(=O)c1cc2cc(NC(=O)c3cc4ccccc4[nH]3)ccc2[nH]1 (centres unmarked) [compound 6, N-(2-(1-(Chloromethyl)-5-(pivalamidooxy)-2,3-dihydro-1H-benzo[e]indole-3-carbonyl)-1H-indol-5-yl)-1H-indole-2-carboxamide] |  |  | < 0.5 | completely cleaved |  |  |  |  | rapidly cleaved |  |  | 
CN(Oc1cc2c(c3ccccc13)C(CCl)CN2C(=O)c1cc2cc(NC(=O)c3cc4ccccc4[nH]3)ccc2[nH]1)C(=O)OC(C)(C)C (centres unmarked) [compound 8, tert-Butyl(3-(5-(1H-indole-2-carboxamido)-1H-indole-2-carbonyl)-1-(chloromethyl)-2,3-dihydro-1H-benzo[e]indol-5-yl)oxy(methyl)carbamate] | nine-fold | stable | 48 | no significant cleavage |  |  |  |  |  |  |  | 
seco-CBI-indole2 [compound 11, reference compound] |  |  |  |  |  |  |  |  |  | 0.03 | ca. 30 fold | 0.06
